Source: ChEMBL document CHEMBL1138088, “Design and synthesis of selective keto-1,2,4-oxadiazole-based tryptase inhibitors” (Bioorg Med Chem Lett, 2006)

Assays:
Tryptase beta-1 = Tryptase beta-1 (Homo sapiens, UniProt Q15661); experiment: Inhibition of human B tryptase; conditions: read-out: Ki app
Trypsin = Trypsin (Homo sapiens, UniProt P07477+P07478+P35030); experiment: Inhibition of trypsin; assay type: protein assay
Homo sapiens = species: Homo sapiens; experiment: Selectivity for tryptase over trypsin
[1] = Steady state volume of distribution in rat at 0.5 mg/kg, iv; assay type: ADME, organism-based; set-up: dose 0.5 mg/kg, route intravenous; conditions: in vivo, read-out: Vss
[2] = Mean residence time in rat at 0.5 mg/kg, iv; assay type: ADME, organism-based; set-up: dose 0.5 mg/kg, route intravenous; conditions: in vivo
[3] = AUC in rat at 0.5 mg/kg, iv; assay type: ADME, organism-based; set-up: dose 0.5 mg/kg, route intravenous; conditions: plasma
[4] = Terminal half life in rat at 0.5 mg/kg, iv; assay type: ADME, organism-based; set-up: dose 0.5 mg/kg, route intravenous; conditions: in vivo
[5] = Oral absorption in rat at 5 mg/kg, po; assay type: ADME, organism-based; set-up: dose 5 mg/kg, route oral; conditions: in vivo
[6] = Oral bioavailability in rat at 5 mg/kg, po; assay type: ADME, organism-based; conditions: in vivo
[7] = Terminal half life in rat at 5 mg/kg, po; assay type: ADME, organism-based; set-up: dose 5 mg/kg, route oral; conditions: in vivo
[8] = Cmax in rat at 0.5 mg/kg, iv; assay type: ADME, organism-based; set-up: dose 0.5 mg/kg, route intravenous; conditions: in vivo
[9] = Clearance in rat at 0.5 mg/kg, iv; assay type: ADME, organism-based; set-up: dose 0.5 mg/kg, route intravenous; conditions: in vivo
[10] = Central volume of distribution in rat at 0.5 mg/kg, iv; assay type: ADME, organism-based; set-up: dose 0.5 mg/kg, route intravenous; conditions: in vivo, read-out: Vc
Prothrombin = Prothrombin (Homo sapiens, UniProt P00734); experiment: Inhibition of thrombin; conditions: read-out: Ki app
Plasminogen = Plasminogen (Homo sapiens, UniProt P00747); experiment: Inhibition of plasmin; conditions: read-out: Ki app
Plasma kallikrein = Plasma kallikrein (Homo sapiens, UniProt P03952); experiment: Inhibition of kallikrein; conditions: read-out: Ki app
[11] = molecular target: Vitamin K-dependent protein C (Homo sapiens, UniProt P04070); experiment: Inhibition of APC; conditions: read-out: Ki app
Chymotrypsinogen B = Chymotrypsinogen B (Homo sapiens, UniProt P17538); experiment: Inhibition of chymotrypsin; conditions: read-out: Ki app
[12] = Inhibition of elastase; set-up: species or system Homo sapiens; conditions: read-out: Ki app
Chymase = molecular target: T1, Chymase (Homo sapiens, UniProt P23946); experiment: Inhibition of chymase; conditions: read-out: Ki app
T1 sequence (P23946 whole entry): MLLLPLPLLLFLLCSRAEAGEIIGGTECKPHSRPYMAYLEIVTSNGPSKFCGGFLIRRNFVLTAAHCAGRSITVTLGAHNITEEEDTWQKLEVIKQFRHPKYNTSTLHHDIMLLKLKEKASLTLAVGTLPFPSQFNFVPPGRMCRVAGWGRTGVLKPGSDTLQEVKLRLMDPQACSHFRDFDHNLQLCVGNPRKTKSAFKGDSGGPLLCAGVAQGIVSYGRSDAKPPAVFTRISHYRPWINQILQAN

[13] = molecular target: Urokinase-type plasminogen activator (Homo sapiens, UniProt P00749); experiment: Inhibition of urokinase; conditions: read-out: Ki app
Granzyme K = molecular target: T2, Granzyme K (Homo sapiens, UniProt P49863); experiment: Inhibition of granzyme K; conditions: read-out: Ki app
T2 sequence (P49863 whole entry): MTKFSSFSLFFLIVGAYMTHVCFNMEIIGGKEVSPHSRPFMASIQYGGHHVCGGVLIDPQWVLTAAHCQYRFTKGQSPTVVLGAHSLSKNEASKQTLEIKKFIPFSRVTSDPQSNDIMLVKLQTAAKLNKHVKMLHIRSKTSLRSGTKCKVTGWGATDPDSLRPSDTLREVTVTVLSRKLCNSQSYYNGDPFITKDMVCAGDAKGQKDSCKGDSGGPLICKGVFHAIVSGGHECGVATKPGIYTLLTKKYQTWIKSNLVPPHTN

Cathepsin G = molecular target: T3, Cathepsin G (Homo sapiens, UniProt P08311); experiment: Inhibition of cathepsin G; conditions: read-out: Ki app
T3 sequence (P08311 whole entry): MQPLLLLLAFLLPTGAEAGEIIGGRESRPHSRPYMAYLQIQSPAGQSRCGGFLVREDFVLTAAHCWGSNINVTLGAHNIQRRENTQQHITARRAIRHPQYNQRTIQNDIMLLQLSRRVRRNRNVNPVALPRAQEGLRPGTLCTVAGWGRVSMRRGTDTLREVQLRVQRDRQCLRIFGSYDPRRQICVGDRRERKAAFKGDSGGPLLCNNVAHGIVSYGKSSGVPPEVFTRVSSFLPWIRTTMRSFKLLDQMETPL

Coagulation factor VII = molecular target: T4, Coagulation factor VII (Homo sapiens, UniProt P08709); experiment: Inhibition of factor 7a; conditions: read-out: Ki app
T4 sequence (P08709 whole entry): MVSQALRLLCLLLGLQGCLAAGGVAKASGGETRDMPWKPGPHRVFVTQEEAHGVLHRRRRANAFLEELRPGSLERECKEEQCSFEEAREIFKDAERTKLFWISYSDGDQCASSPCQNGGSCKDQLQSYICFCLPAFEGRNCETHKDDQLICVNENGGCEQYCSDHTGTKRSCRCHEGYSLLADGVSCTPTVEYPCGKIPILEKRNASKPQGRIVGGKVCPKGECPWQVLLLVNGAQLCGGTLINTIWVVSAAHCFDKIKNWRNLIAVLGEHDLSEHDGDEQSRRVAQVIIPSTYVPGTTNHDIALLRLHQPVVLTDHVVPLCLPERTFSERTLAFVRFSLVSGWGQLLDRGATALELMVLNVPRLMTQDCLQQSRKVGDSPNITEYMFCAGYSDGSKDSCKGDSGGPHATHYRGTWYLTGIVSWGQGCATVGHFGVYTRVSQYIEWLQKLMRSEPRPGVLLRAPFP

Coagulation factor X = Coagulation factor X (Homo sapiens, UniProt P00742); experiment: Inhibition of factor 10a; conditions: read-out: Ki app
Coagulation factor IX = Coagulation factor IX (Homo sapiens, UniProt P00740); experiment: Inhibition of factor 9a; conditions: read-out: Ki app
Coagulation factor XI = Coagulation factor XI (Homo sapiens, UniProt P03951); experiment: Inhibition of factor 11a; conditions: read-out: Ki app
Coagulation factor XI, sequence (P03951 19-387 limits assumed): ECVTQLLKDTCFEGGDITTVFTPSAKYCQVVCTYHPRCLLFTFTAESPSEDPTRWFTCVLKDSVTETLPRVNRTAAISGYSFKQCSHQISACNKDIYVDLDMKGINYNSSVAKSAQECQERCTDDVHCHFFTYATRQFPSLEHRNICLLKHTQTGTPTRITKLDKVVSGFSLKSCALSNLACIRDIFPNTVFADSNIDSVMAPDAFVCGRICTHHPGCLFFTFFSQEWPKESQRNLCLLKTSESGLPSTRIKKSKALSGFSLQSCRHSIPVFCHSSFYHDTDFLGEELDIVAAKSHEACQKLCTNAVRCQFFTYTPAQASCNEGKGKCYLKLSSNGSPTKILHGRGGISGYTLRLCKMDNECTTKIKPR
Coagulation factor XI, sequence (P03951 388-625 limits assumed): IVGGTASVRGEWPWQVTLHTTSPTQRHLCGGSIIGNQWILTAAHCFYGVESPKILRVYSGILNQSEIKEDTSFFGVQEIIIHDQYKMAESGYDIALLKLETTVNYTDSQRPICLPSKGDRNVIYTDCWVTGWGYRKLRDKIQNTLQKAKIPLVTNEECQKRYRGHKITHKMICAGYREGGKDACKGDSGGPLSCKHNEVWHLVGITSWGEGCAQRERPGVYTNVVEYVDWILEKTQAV

Tryptase beta-1, sequence (Q15661 whole entry): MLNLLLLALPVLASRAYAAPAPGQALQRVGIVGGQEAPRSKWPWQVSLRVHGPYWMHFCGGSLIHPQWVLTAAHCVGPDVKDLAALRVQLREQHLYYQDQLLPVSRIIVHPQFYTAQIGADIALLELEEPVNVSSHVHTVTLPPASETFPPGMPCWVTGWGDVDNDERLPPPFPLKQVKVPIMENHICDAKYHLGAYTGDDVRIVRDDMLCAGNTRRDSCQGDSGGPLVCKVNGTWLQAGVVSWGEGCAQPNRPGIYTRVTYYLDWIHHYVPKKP
Plasminogen, sequence (P00747 97-580 limits assumed): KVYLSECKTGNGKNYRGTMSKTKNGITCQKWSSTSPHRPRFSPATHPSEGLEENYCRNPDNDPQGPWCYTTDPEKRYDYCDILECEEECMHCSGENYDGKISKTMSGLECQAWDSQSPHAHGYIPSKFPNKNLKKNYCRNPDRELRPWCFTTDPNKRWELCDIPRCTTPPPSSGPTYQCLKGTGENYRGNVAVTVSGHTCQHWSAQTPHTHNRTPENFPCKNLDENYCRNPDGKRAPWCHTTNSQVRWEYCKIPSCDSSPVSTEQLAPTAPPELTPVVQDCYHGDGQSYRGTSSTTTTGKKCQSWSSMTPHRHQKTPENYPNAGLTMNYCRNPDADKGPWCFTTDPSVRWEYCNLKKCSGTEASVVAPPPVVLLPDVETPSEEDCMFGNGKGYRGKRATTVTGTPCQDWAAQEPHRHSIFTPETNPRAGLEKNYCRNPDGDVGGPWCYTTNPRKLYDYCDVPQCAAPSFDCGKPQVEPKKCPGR
Plasminogen, sequence (P00747 581-810 limits assumed): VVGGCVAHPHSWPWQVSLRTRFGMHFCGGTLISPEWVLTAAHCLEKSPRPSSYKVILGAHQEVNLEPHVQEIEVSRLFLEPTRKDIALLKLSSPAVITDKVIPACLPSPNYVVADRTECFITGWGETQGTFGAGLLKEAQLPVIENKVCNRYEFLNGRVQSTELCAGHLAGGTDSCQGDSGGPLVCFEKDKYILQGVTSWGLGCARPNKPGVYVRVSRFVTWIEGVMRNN
Plasma kallikrein, sequence (P03952 20-390 limits assumed): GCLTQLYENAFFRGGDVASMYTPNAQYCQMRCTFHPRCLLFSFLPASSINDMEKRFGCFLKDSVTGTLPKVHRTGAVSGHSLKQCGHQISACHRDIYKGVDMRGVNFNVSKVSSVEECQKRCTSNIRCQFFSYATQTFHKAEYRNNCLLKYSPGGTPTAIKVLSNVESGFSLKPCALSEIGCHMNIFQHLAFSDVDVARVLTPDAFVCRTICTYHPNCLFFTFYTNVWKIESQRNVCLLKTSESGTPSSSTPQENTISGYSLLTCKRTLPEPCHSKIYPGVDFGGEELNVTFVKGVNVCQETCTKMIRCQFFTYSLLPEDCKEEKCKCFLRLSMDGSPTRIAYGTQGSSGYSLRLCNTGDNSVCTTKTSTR
Plasma kallikrein, sequence (P03952 391-638 limits assumed): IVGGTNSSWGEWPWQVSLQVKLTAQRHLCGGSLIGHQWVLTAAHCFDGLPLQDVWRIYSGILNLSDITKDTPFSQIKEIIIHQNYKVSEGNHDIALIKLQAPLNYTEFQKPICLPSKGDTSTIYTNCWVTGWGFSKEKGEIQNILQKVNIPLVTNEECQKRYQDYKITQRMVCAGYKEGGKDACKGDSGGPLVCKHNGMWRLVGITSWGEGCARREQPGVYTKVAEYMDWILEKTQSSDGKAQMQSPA
Vitamin K-dependent protein C, sequence (P04070 43-197 limits assumed): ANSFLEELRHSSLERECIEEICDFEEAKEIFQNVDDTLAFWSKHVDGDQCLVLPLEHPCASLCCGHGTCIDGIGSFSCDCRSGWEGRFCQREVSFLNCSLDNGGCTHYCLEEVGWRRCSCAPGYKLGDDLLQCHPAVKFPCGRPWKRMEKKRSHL
Vitamin K-dependent protein C, sequence (P04070 212-461 limits assumed): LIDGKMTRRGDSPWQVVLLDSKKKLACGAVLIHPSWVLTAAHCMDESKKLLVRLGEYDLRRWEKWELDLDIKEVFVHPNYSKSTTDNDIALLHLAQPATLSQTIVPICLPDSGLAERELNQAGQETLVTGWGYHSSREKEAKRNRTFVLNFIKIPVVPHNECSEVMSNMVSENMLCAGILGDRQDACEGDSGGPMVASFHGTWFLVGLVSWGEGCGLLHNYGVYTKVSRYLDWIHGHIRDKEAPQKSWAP
Chymotrypsinogen B, sequence (P17538 34-164 limits assumed, other chains not shown): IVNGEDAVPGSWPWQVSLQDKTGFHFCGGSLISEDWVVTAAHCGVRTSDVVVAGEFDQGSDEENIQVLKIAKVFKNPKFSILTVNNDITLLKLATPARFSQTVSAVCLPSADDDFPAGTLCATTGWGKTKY
Chymotrypsinogen B, sequence (P17538 167-263 limits assumed, other chains not shown): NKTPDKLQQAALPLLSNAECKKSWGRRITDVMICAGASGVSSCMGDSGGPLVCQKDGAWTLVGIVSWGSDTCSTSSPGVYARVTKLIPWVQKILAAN
Coagulation factor X, sequence (P00742 41-179 limits assumed): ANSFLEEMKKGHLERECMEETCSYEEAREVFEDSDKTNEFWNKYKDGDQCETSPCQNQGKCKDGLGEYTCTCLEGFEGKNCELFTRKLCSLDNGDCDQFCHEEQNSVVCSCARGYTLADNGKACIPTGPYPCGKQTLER
Coagulation factor X, sequence (P00742 235-488 limits assumed): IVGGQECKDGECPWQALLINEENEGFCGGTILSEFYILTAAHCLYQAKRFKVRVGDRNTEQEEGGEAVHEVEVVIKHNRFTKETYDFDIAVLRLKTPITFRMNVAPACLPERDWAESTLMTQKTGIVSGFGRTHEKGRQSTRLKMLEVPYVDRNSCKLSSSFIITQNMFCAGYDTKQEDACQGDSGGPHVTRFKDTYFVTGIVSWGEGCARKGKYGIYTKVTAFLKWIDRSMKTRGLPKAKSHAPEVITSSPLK
Coagulation factor IX, sequence (P00740 47-191 limits assumed): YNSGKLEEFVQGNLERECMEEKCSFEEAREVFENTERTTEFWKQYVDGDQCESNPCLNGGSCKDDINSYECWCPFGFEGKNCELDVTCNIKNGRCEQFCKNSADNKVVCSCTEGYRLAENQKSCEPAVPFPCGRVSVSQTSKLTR
Coagulation factor IX, sequence (P00740 227-461 limits assumed): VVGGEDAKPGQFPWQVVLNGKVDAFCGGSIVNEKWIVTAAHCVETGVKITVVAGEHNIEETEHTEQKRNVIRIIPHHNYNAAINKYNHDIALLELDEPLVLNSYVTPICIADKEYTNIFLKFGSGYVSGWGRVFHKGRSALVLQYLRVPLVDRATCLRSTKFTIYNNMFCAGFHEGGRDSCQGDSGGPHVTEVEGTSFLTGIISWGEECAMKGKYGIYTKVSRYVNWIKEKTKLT

SMILES	Ki (Tryptase beta-1) [nM]	Ki app (Trypsin) [nM]	Selectivity ratio (Homo sapiens)	further results
Cl.NCCCC[C@H](NC(=O)C1CCOC1)C(=O)c1noc(Cc2ccc(OCCc3ccc(Cl)c(Cl)c3)cc2)n1 (stereo partly drawn)	22	1100	50	
CC(C)(C)COC(=O)N[C@@H](CCCCN)C(=O)c1noc(Cc2ccc(OCCc3ccc(Cl)c(Cl)c3)cc2)n1.Cl	11	1900	173	
Cl.NCCCC[C@H](NC(=O)C1CCCC1)C(=O)c1noc(Cc2ccc(OCCc3ccc(Cl)c(Cl)c3)cc2)n1	6.5	300	46	
Cl.NCCCC[C@H](NC(=O)c1ccc(F)cc1)C(=O)c1noc(Cc2ccc(OCCc3ccc(Cl)c(Cl)c3)cc2)n1		1100		Vd [1]: 7.8 L/kg; MRT [2]: 2.88 h; AUC [3]: 0.3 µM·h; half-life [4]: 2.9 h; Fa [5]: 12%; bioavailability [6]: 9%; half-life [7]: 2.25 h; Cmax [8]: 1010 nM; clearance [9]: 45 mL/min/kg; Vd [10]: 0.457 L/kg
CCN(CC)C(=O)N[C@@H](CCCCN)C(=O)c1noc(Cc2ccc(OCCc3ccc(Cl)c(Cl)c3)cc2)n1.Cl	18	2400	133	
Cc1cc(C(=O)N[C@@H](CCCCN)C(=O)c2noc(Cc3ccc(OCCc4ccc(Cl)c(Cl)c4)cc3)n2)c(C)o1.Cl	46	3900	85	
Cl.NCCCC[C@H](NC(=O)c1ccc(Cl)cc1)C(=O)c1noc(Cc2ccc(OCCc3ccc(Cl)c(Cl)c3)cc2)n1	6.55	2550	389	
Cl.NCCCC[C@H](NC(=O)c1ccc(F)c(F)c1)C(=O)c1noc(Cc2ccc(OCCc3ccc(Cl)c(Cl)c3)cc2)n1		3300		Ki (Prothrombin): > 150000 nM; Ki (Plasminogen): 910 nM; Ki (Plasma kallikrein): 83000 nM; Ki [11]: > 150000 nM; Ki (Chymotrypsinogen B): > 150000 nM; Ki [12]: > 150000 nM; Ki (Chymase): > 150000 nM; Ki [13]: > 150000 nM; Ki (Granzyme K): > 150000 nM; Ki (Cathepsin G): > 150000 nM; Ki (Coagulation factor VII): > 150000 nM; Ki (Coagulation factor X): > 150000 nM; Ki (Coagulation factor IX): > 150000 nM; Ki (Coagulation factor XI): > 150000 nM
Cl.NCCCC[C@H](NC(=O)N1CCOCC1)C(=O)c1noc(Cc2ccc(OCCc3ccc(Cl)c(Cl)c3)cc2)n1	5.7	870	153	
CC(C)C(=O)N[C@@H](CCCCN)C(=O)c1noc(Cc2ccc(OCCc3ccc(Cl)c(Cl)c3)cc2)n1.Cl	6.8	120	18	
COC(=O)N[C@@H](CCCCN)C(=O)c1noc(Cc2ccc(OCCc3ccc(Cl)c(Cl)c3)cc2)n1.Cl	17	2200	129	
Cl.NCCCC[C@H](NC(=O)N1CCCCC1)C(=O)c1noc(Cc2ccc(OCCc3ccc(Cl)c(Cl)c3)cc2)n1	9.2	1400	152	
CCOC(=O)N[C@@H](CCCCN)C(=O)c1noc(Cc2ccc(OCCc3ccccc3)cc2)n1	5.4	190		Ki (Prothrombin): 64000 nM; Ki (Plasminogen): 430 nM; Ki (Plasma kallikrein): 43000 nM; Ki [11]: > 150000 nM; Ki (Chymotrypsinogen B): > 150000 nM; Ki [12]: > 150000 nM; Ki (Chymase): > 150000 nM; Ki [13]: > 150000 nM; Ki (Granzyme K): > 150000 nM
Cl.NCCCC[C@H](NC(=O)c1ccccc1F)C(=O)c1noc(Cc2ccc(OCCc3ccc(Cl)c(Cl)c3)cc2)n1	6.2	1100	177	
Cl.NCCCC[C@H](NC(=O)c1cccc(F)c1)C(=O)c1noc(Cc2ccc(OCCc3ccc(Cl)c(Cl)c3)cc2)n1	5.8	1700	293	
Cl.NCCCC[C@H](NC(=O)N1CCCC1)C(=O)c1noc(Cc2ccc(OCCc3ccc(Cl)c(Cl)c3)cc2)n1	32	3800	119	
CN(C)C(=O)N[C@@H](CCCCN)C(=O)c1noc(Cc2ccc(OCCc3ccc(Cl)c(Cl)c3)cc2)n1.Cl	9.6	850	89	
CCCCCC(=O)N[C@@H](CCCCN)C(=O)c1noc(Cc2ccc(OCCc3ccc(Cl)c(Cl)c3)cc2)n1.Cl	9.8	180	18	

The next lines start with results.

Ki (Tryptase beta-1) [nM]	Ki app (Trypsin) [nM]	Selectivity ratio (Homo sapiens)	SMILES	further results
3.75	625	167	CC(C)(C)C(=O)N[C@@H](CCCCN)C(=O)c1noc(Cc2ccc(OCCc3ccc(Cl)c(Cl)c3)cc2)n1.Cl	
5	415	83	CC(C)OC(=O)N[C@@H](CCCCN)C(=O)c1noc(Cc2ccc(OCCc3ccc(Cl)c(Cl)c3)cc2)n1.Cl	
3.25	1150	354	Cl.NCCCC[C@H](NC(=O)c1ccc(F)cc1F)C(=O)c1noc(Cc2ccc(OCCc3ccc(Cl)c(Cl)c3)cc2)n1	
3.7	190	51	COCC(=O)N[C@@H](CCCCN)C(=O)c1noc(Cc2ccc(OCCc3ccc(Cl)c(Cl)c3)cc2)n1.Cl	
2.9	220	76	Cl.NCCCC[C@H](NC(=O)C(F)(F)F)C(=O)c1noc(Cc2ccc(OCCc3ccc(Cl)c(Cl)c3)cc2)n1	
2.3	480	209	Cl.NCCCC[C@H](NC(=O)c1ccco1)C(=O)c1noc(Cc2ccc(OCCc3ccc(Cl)c(Cl)c3)cc2)n1	
4.7	380	81	CCOC(=O)N[C@@H](CCCCN)C(=O)c1noc(Cc2ccc(OCCc3ccc(Cl)c(Cl)c3)cc2)n1.Cl	
5	500	100	COCCOC(=O)N[C@@H](CCCCN)C(=O)c1noc(Cc2ccc(OCCc3ccc(Cl)c(Cl)c3)cc2)n1.Cl	
4.6		10	NCCCC[C@H](NC(=O)C1CC1)C(=O)c1noc(Cc2ccc(OCCc3ccc(Cl)c(Cl)c3)cc2)n1	
